Values quoted from earlier work, collected in patent publication US6852743B1, “Preventives for the recurrence of cerebrovascular failure and agents for ameliorating troubles following cerebrovascular failure and inhibiting progress thereof” (Takeda Pharmaceutical Company Limited, priority 1999, dated 2005).

Tests used:
insulin sensitivity = conditions: clinically; Iimura O. et al., Am J Hypertens 8, 353-357, 1995
[1] = tested on: automatic regulation of cerebral blood flow; conditions: literature report, Vraamark T et al., J Hypertens 13:755-761, 1995

| Structure (SMILES) | insulin sensitivity (insulin sensitivity) | effect on the lower limit of automatic regulation [1] |
| --- | --- | --- |
| CCOc1nc2cccc(C(=O)OC(C)OC(=O)OC3CCCCC3)c2n1Cc1ccc(-c2ccccc2-c2nnn[nH]2)cc1 (centres unmarked) [Candesartan cilexetil, 1-(cyclohexyloxycarbonyloxy)ethyl 2-ethoxy-1-[[2′-(1H-tetrazole-5-yl)biphenyl-4-yl]methyl]benzimidazole-7-carboxylate] | improve insulin sensitivity clinically | – |
| CCOc1nc2cccc(C(=O)O)c2n1Cc1ccc(-c2ccccc2-c2nnn[nH]2)cc1 [Candesartan, 2-ethoxy-1-[[2′-(1H-tetrazole-5-yl)biphenyl-4-yl]methyl]benzimidazol-7-carboxylic acid] | – | can deviate the lower limit of automatic regulation leftward (toward lower blood pressure level) |
